Results published in PMC2074590 (British Journal of Cancer, 1996).
“Also recorded” adds a separate entry of the source. Like-named read-outs stand apart in the source and are kept apart here.

Key:
breast cancer cells = test system: breast cancer cells; set-up: method as in Wakeling and Bowler, 1987, 1988; conditions: ref Wakeling and Bowler, 1987, 1988; cited from earlier work
[1] = test system: endometrial proliferation; set-up: method as in Thomas et al., 1993; conditions: short-term studies in women, at serum concentrations similar to the present study; ref Thomas et al., 1993; cited from earlier work
[2] = Side-effects, local and systemic drug tolerability; assay type: in vivo, human
Procedure: (§1) Bridsh Journal of Cancer (1996) 74, 300-308 ? […] The agent was administered as a monthly depot intramuscular injection. […] The study was approved by the ethics committees of each clinical centre. Patients were eligible for the study if they were post- menopausal and age less than 81 years, with histologically verified breast cancer. […] Patients were excluded if they had serious intercurrent disease, a WHO performance status of greater than 2, and a life expectancy of less than 3 months or had received previous cytotoxic chemotherapy for advanced breast cancer. […] Patients 5-19 received 250 mg month-1 i.m. from the outset. […] Tumour response to therapy was evaluated according to UICC criteria (Hayward et al., 1977). To qualify for the 'no change' category, tumour growth had to stabilise for more than 6 months (Howell et al., 1988; Robertson et al., 1989). Body weight was recorded at each monthly review in the majority of patients. […] The procedure was applied after solid base clean up of a diethyl ether/hexane extract of serum. The study limit of quantification was 0.68 ng ml-'. […] Gonadotrophins follicle-stimulating hormone and lutenising hormone (FSH and LH) and SHBG were measured by RIA in the Regional Radioimmunoassay Laboratory of the University Hospital of South Manchester. Prolactin was measured by immunoradiometric assay using reagents supplied by Netria. Total cholesterol levels were determined enzymatically using a commercially available reagent (Diamed, Switzerland). Triglyceride levels were determined by the glyceryl phosphate oxidase-peroxidase-antiperox- idase method using a commercially available kit (Boehringer Mannheim, Germany). High-density lipoprotein (HDL) cholesterol levels were measured after pretreatment of the serum samples with buffered magnesium phosphotungstate, which selectively precipitates low-density lipoprotein (LDL) cholesterol, very low-density lipoprotein (VLDL) cholesterol and chylomicrons, leaving HDL cholesterol in the super- natant. Serum levels of LDL cholesterol were calculated using the Friedewald equation (Friedewald et al., 1972). Endometrial assessment Endometrial thickness was measured in transverse section by transabdominal ultrasound using a Siemens Sonoline SL2 with a 3.5 MHz sector probe. Baseline and repeat scans at 3-6 monthly intervals were performed in five patients. […] Pharmacokinectic data were analysed using para- metric statistics. Data relating to body weight, serum gonadotrophin, SHBG and lipid levels were analysed using non-parametric statistics. The null hypothesis was rejected at a probability level of P<0.05. […] However, samples were not available between day 2 and day 8.

[3] = test system: total cholesterol, LDL cholesterol, HDL cholesterol, triglyceride; experiment: Serum lipid levels during treatment; assay type: in vivo, human; conditions: 12 patients
Procedure: (§2) Bridsh Journal of Cancer (1996) 74, 300-308 ? […] The agent was administered as a monthly depot intramuscular injection. […] The study was approved by the ethics committees of each clinical centre. Patients were eligible for the study if they were post- menopausal and age less than 81 years, with histologically verified breast cancer. […] Patients were excluded if they had serious intercurrent disease, a WHO performance status of greater than 2, and a life expectancy of less than 3 months or had received previous cytotoxic chemotherapy for advanced breast cancer. […] Patients 5-19 received 250 mg month-1 i.m. from the outset. […] Tumour response to therapy was evaluated according to UICC criteria (Hayward et al., 1977). […] Body weight was recorded at each monthly review in the majority of patients. […] The study limit of quantification was 0.68 ng ml-'. […] Gonadotrophins follicle-stimulating hormone and lutenising hormone (FSH and LH) and SHBG were measured by RIA in the Regional Radioimmunoassay Laboratory of the University Hospital of South Manchester. Prolactin was measured by immunoradiometric assay using reagents supplied by Netria. Total cholesterol levels were determined enzymatically using a commercially available reagent (Diamed, Switzerland). […] Serum levels of LDL cholesterol were calculated using the Friedewald equation (Friedewald et al., 1972). […]

[4] = test system: endometrial proliferation; set-up: method as in Dukes et al., 1993; conditions: primates, at serum concentrations similar to the present study; ref Dukes et al., 1993; cited from earlier work
[5] = test system: advanced breast cancer resistant to tamoxifen; experiment: Tumour response to therapy, UICC criteria; assay type: in vivo, human; set-up: key to Response to 182780: PD: progressive disease; NC: no change; PR: partial response
Procedure: as §1

[6] = test system: Ki67, ER, PgR, pS2 in primary breast cancer; conditions: short-acting propylene glycol-based formulation, daily i.m. for 1 week before surgery, ref DeFriend et al., 1994b, Nicholson et al.; cited from earlier work
[7] = test system: serum FSH, LH, prolactin, SHBG; experiment: Serum FSH, LH, prolactin and SHBG before and during treatment; assay type: in vivo, human
Procedure: as §1

endometrium = experiment: Endometrial assessment (transabdominal ultrasound thickness, histology); assay type: in vivo, human
Procedure: as §2

[8] = Body weight at monthly review; assay type: in vivo, human
Procedure: Bridsh Journal of Cancer (1996) 74, 300-308 ? […] The agent was administered as a monthly depot intramuscular injection. […] The study was approved by the ethics committees of each clinical centre. Patients were eligible for the study if they were post- menopausal and age less than 81 years, with histologically verified breast cancer. […] Patients were excluded if they had serious intercurrent disease, a WHO performance status of greater than 2, and a life expectancy of less than 3 months or had received previous cytotoxic chemotherapy for advanced breast cancer. […] Patients 5-19 received 250 mg month-1 i.m. from the outset. […] Tumour response to therapy was evaluated according to UICC criteria (Hayward et al., 1977). To qualify for the 'no change' category, tumour growth had to stabilise for more than 6 months (Howell et al., 1988; Robertson et al., 1989). Body weight was recorded at each monthly review in the majority of patients. […] The procedure was applied after solid base clean up of a diethyl ether/hexane extract of serum. The study limit of quantification was 0.68 ng ml-'. […] Gonadotrophins follicle-stimulating hormone and lutenising hormone (FSH and LH) and SHBG were measured by RIA in the Regional Radioimmunoassay Laboratory of the University Hospital of South Manchester. Prolactin was measured by immunoradiometric assay using reagents supplied by Netria. Total cholesterol levels were determined enzymatically using a commercially available reagent (Diamed, Switzerland). Triglyceride levels were determined by the glyceryl phosphate oxidase-peroxidase-antiperox- idase method using a commercially available kit (Boehringer Mannheim, Germany). High-density lipoprotein (HDL) cholesterol levels were measured after pretreatment of the serum samples with buffered magnesium phosphotungstate, which selectively precipitates low-density lipoprotein (LDL) cholesterol, very low-density lipoprotein (VLDL) cholesterol and chylomicrons, leaving HDL cholesterol in the super- natant. Serum levels of LDL cholesterol were calculated using the Friedewald equation (Friedewald et al., 1972). […]

## C[C@]12CC[C@@H]3c4ccc(O)cc4C[C@@H](CCCCCCCCC[S+]([O-])CCCC(F)(F)C(F)(F)F)[C@H]3[C@@H]1CC[C@@H]2O (stereo partly drawn) [ICI 182780, 7a-[9(4,4,5,5,pentafluoropentyl-sulphinyl)nonyl]oestra-1 ,3,5,(10)-triene-3,17,B-diol]
Breast cancer cells
  Potency as inhibitor of cell growth in vitro relative to tamoxifen: up to two orders of magnitude more potent than tamoxifen
[1]
  Effect on endometrial proliferation: inhibited endometrial proliferation
[2]; 19 patients
  Serious drug-related adverse events: No serious drug-related adverse events
[2]; direct questioning at each monthly attendance
  Vaginal dryness or altered libido: None of the patients reported
[2]; in vivo
  Frequency of side-effects: infrequent
  Full blood count and biochemical profile: No clinically significant changes
  Hot flushes and night sweats: not induced; also recorded: not associated with any alteration
  Injection-site events: erythema: a third patient had local erythema at the injection site on one occasion
[2]; long-acting formulation, 5 ml i.m.
  Local tolerance at the site of injection: well tolerated locally
[2]; of 19 patients
  Patients reporting minor systemic adverse events: two
[2]; one occasion each
  Injection-site events: bruising, tenderness: One patient developed bruising over the buttock and a second developed tenderness at the injection site
[3]
  Change in serum lipids (total cholesterol, LDL cholesterol, HDL cholesterol, triglyceride): no significant changes
[4]
  Effect on endometrial proliferation: inhibited endometrial proliferation
[5]; 13 responding patients
  Median duration of response: 25 months
[5]; 19 patients
  Partial response rate: 37%
  Progression rate: 31%
[5]; 19 patients, after progression on tamoxifen
  Patients responding (partial response + no change): 69%
[5]; 19 patients, stabilisation for more than 6 months
  No change response rate: 32%
[5]; NC patient with 61 months adjuvant tamoxifen (A61, = patient 15), from Table III
  Duration of response: ≥ 23 months
[5]; after 30-33 months
  Patients still in remission and continuing treatment: five
[5]; in vivo
  Association between duration of treatment with tamoxifen and subsequent response: no association
  Responses in women who progressed while receiving tamoxifen for advanced breast cancer: six of the nine
  Responses in women who relapsed after tamoxifen as adjuvant therapy: seven of the ten
[5]; of 19 patients
  Number of patients with progression: 6 patients
[5]; patient 1 (donor kappa)
  Response to 182780: PD
[5]; patient 1, PD
  Duration of response: < 2 months
[5]; patient 2 (donor eta)
  Response to 182780: NC
[5]; patient 2, NC
  Duration of response: 29 months
[5]; patient 3 (donor mu)
  Response to 182780: PR
[5]; patient 3, PR
  Duration of response: 12 months
[5]; patient 4 (donor lambda)
  Response to 182780: PD
[5]; patient 4, PD
  Duration of response: < 2 months
[5]; patient 5 (donor sigma)
  Response to 182780: PR
[5]; patient 5, PR
  Duration of response: 8 months
[5]; patient 6 (donor delta)
  Response to 182780: PR
[5]; patient 6, PR
  Duration of response: 3 months
[5]; patient 7 (donor gamma)
  Response to 182780: PD
[5]; patient 7, PD
  Duration of response: < 2 months
[5]; patient 8 (donor theta)
  Response to 182780: PR
[5]; patient 8, PR
  Duration of response: 25 months
[5]; patient 9 (NT)
  Response to 182780: PD
[5]; patient 9, PD
  Duration of response: < 2 months
[5]; patient 10 (donor iota)
  Response to 182780: PR
[5]; patient 10, PR, + = continuing
  Duration of response: ≥ 33 months
[5]; patient 11 (donor epsilon)
  Response to 182780: PD
[5]; patient 11, PD
  Duration of response: < 2 months
[5]; patient 12 (donor nu)
  Response to 182780: NC
[5]; patient 12, NC, + = continuing
  Duration of response: ≥ 33 months
[5]; patient 13 (donor tau)
  Response to 182780: PD
[5]; patient 13, PD
  Duration of response: < 2 months
[5]; patient 14 (donor xi)
  Response to 182780: PR
[5]; patient 14, PR, + = continuing
  Duration of response: ≥ 32 months
[5]; patient 15 (donor omicron)
  Response to 182780: NC
[5]; patient 16 (donor rho)
  Response to 182780: PR
[5]; patient 16, PR
  Duration of response: 25 months
[5]; patient 17 (donor zeta)
  Response to 182780: NC
[5]; patient 17, NC
  Duration of response: 9 months
[5]; patient 18 (donor beta)
  Response to 182780: NC
[5]; patient 18, NC, + = continuing
  Duration of response: ≥ 30 months
[5]; patient 19 (donor pi)
  Response to 182780: NC
[5]; patient 19, NC, + = continuing
  Duration of response: ≥ 30 months
[5]; six patients unresponsive de novo
  Time to objective disease progression in unresponsive patients: ≤ 2 months
[6]
  Expression of ER, PgR and pS2 vs pretreatment samples: reduced or absent expression
  Tumour proliferation (Ki67 expression) vs pretreatment samples: reduced proliferation
[7]; after 8 months of treatment, median pretreatment 100, P=NS
  Serum SHBG, median level: 55 nM
[7]; first 3 months of administration, median pre-treatment 26, P<0.005
  Serum LH, median post-treatment value: 42 IU 1-1
[7]; first 3 months of administration, median pre-treatment 26, P<0.05
  Serum FSH, median post-treatment value: 52 IU l-1
[7]; in vivo
  Change in serum SHBG: no significant changes; also recorded: overall trend to decrease
  Change in serum gonadotrophin levels after the first 3 months: no further significant overall changes
[7]; throughout the treatment period
  Change in serum prolactin: no significant changes; also recorded: did not change significantly
endometrium; one patient, hysterectomy after 18 months on treatment
  Endometrial histology: atrophic post-menopausal pattern with cystic change
endometrium; serial ultrasound in five responding patients, up to 15 months
  Endometrial thickness / effect on endometrium: no apparent effect; also recorded: remained unchanged
[8]; after 10 months, n = 9
  Mean body weight (s.d.): 64.5 ± 17.2 kg
[8]; after 16 months, n=9
  Mean body weight (s.d.): 64.2 ± 18.3 kg
[8]; baseline mean 63.8 kg (n=13)
  Change in body weight during treatment: no significant changes
